The subject of assay [1] is neutrophils. Briefly: ROS analysis in neutrophils (DHR123, OxyBURST). The following applies: flow cytometry and fluorimetry, cell impermeable ROS dye. The class given is cell-based, human.
Assay [2] deals with FcgRIIA on monocytes. Kind of assay: FcgRIIA and CD11b on monocytes (PBMCs with R848, neutrophils or neutrophil supernatant). The class given is cell-based, human. As for the experimental part:
Since we observed prominent protease-mediated shedding of FcgRIIA in neutrophils, we next asked if activated neutrophils could induce shedding of FcgRIIA in other immune cells. PBMCs were co-incubated with neutrophils (PMNs) in the presence of R848 and a pan-protease inhibitor. Levels of FcgRIIA on monocytes (CD14+), and pDCs (CD304+) were determined by flow cytometry and expressed as FcgRIIA (% of control) as compared to PBMCs incubated in medium in absence of neutrophils. […]
To determine if the loss of monocyte FcgRIIA was mediated through cell-cell interactions or due to a soluble neutrophil-derived factor, we added supernatant from TLR7/8-activated neutrophils to monocytes. Specifically, neutrophil supernatant, derived from non-stimulated (no, n=5) or R848-stimulated (R848, n=9) neutrophils, were added to monocytes in presence of indicated inhibitors (CMK; furin inhibitor, n=5, and Pan; pan-protease inhibitor, n=5) and monocyte FcgRIIA levels analyzed by flow cytometry. […]
Neutrophils and PBMCs were incubated at a 2:1 ratio (500,000 vs 250,000 cells) with the pan-protease inhibitor (1×) for 30 minutes followed by R848 (2 μg/mL) for an additional 60 minutes and analyzed for FcgR levels by flow cytometry. […]

In the case of `CCOCc1nc2c(N)nc3ccccc3c2n1CC(C)(C)O` [R848], in assay [1], the “cellular localization of ROS generation” value was “induced intracellular generation of ROS, but no detectable extracellular ROS”. Also, the “monocyte cell surface CD11b” value in assay [2] (R848) was “up-regulation of cell surface CD11b”. For the same compound, in assay [2] (flow cytometry), the “monocyte cell surface FcgRIIA levels” value is on record as “unchanged”.
